Literature values, collected in patent US20250009900A1, “OXAZAPHOSPHORINE ANTIBODY DRUG CONJUGATES AND METHODS OF USE” (LA Life Products, LLC, priority 2023, published 2025).

Conditions: combination with ipilimumab (anti-CTLA-4), in the clinic; cited from earlier work

SMILES: Cn1c(COP(=O)(NCCBr)NCCBr)cnc1[N+](=O)[O-] [evofosfamide]
- good clinical activity (patients): 15 of 22
